Laboratory results published in ChEMBL document CHEMBL1129506, “2,4-Diarylpyrrolidine-3-carboxylic acids--potent ETA selective endothelin receptor antagonists. 1. Discovery of A-127722” (J Med Chem, 1996).

Tests used:
Endothelin-1 receptor = biological target: T1, Endothelin-1 receptor (Rattus norvegicus, UniProt P26684); assay: Inhibitory activity against the Endothelin A receptor of rat MMQ cells; type: cell-based
T1 sequence (P26684 whole entry): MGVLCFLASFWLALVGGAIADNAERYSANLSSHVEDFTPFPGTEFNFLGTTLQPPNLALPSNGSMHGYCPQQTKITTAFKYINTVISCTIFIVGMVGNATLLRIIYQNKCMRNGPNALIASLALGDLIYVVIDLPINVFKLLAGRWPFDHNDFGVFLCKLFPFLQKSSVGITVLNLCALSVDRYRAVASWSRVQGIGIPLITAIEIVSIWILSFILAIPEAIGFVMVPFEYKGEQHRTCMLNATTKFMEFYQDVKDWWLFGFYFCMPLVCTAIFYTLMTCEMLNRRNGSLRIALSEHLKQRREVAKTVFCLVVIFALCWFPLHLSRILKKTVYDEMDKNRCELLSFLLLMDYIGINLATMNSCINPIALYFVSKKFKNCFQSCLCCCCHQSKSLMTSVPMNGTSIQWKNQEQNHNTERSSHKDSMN

[1] = biological target: T2, Endothelin receptor type B (Sus scrofa, UniProt P35463); assay: Inhibitory activity measured against Endothelin B receptor binding to porcine cerebellum; type: tissue-based
T2 sequence (P35463 whole entry): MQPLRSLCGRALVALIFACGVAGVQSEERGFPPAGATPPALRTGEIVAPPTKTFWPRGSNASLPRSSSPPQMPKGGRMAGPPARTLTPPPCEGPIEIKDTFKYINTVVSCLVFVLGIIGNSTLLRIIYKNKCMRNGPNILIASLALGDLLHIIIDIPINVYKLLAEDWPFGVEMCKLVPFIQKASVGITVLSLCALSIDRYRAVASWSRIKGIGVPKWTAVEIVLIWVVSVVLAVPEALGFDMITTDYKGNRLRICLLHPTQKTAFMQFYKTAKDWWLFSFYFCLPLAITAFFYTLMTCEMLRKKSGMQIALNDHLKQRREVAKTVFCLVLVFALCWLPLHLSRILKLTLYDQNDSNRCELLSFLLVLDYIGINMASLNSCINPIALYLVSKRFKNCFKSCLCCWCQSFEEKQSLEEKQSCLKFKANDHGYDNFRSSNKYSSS

Endothelin receptor = biological target: T3, Endothelin receptor (Rattus norvegicus, UniProt P26684+P21451); assay: Inhibition of phosphoinositol hydrolysis of MMQ cells.; type: functional, cell-based
T3 sequence (P26684 whole entry): T1 sequence (P26684 whole entry)
T3 sequence (P21451 whole entry): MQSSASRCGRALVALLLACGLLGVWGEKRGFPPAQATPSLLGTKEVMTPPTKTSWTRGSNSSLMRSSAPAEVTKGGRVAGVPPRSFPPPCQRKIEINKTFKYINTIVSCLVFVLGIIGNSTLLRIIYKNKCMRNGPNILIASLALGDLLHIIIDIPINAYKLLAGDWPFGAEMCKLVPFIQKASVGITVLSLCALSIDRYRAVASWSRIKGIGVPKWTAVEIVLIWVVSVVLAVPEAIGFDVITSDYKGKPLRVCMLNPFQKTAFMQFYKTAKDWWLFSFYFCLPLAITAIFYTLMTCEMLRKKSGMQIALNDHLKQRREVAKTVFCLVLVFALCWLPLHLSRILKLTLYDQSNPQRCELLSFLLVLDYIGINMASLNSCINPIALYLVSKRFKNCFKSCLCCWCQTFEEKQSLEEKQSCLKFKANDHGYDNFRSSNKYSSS

Compound	IC50 (Endothelin-1 receptor) [nM]	IC50 [1] [nM]	IC50 (Endothelin receptor) [nM]
CCCCOCCN1C[C@@H](c2ccc3c(c2)OCO3)[C@H](C(=O)O)[C@H]1c1ccc(OC)cc1	220	3830	
CCCCCN(CCCCC)C(=O)CN1C[C@@H](c2ccc3c(c2)OCO3)[C@H](C(=O)O)[C@H]1c1ccc(OC)cc1	0.56	313	
COCCNC(=O)CN1C[C@@H](c2ccc3c(c2)OCO3)[C@H](C(=O)O)[C@H]1c1ccc(OC)cc1	178	3730	
CCCCCCN1C[C@@H](c2ccc3c(c2)OCO3)[C@H](C(=O)O)[C@H]1c1ccc(OC)cc1	2870	23300	
COc1ccc([C@@H]2[C@@H](C(=O)O)[C@H](c3ccc4c(c3)OCO4)CN2C/C=C/CC(C)C)cc1	1630	27300	
COc1ccc([C@@H]2[C@@H](C(=O)O)[C@H](c3ccc4c(c3)OCO4)CN2CC(=O)NCC(C)C)cc1	8.2	184	9.22
CCCCCN(C)C(=O)CN1C[C@@H](c2ccc3c(c2)OCO3)[C@H](C(=O)O)[C@H]1c1ccc(OC)cc1	5.78	624	5.64
COc1ccc([C@@H]2[C@@H](C(=O)O)[C@H](c3ccc4c(c3)OCO4)CN2C(=O)N2CCOCC2)cc1	1080	5020	
CCCCC(=O)CN1C[C@@H](c2ccc3c(c2)OCO3)[C@H](C(=O)O)[C@H]1c1ccc(OC)cc1	163	2430	
COc1ccc([C@@H]2[C@@H](C(=O)O)[C@H](c3ccc4c(c3)OCO4)CN2CC(=O)N(C)CC(C)(C)C)cc1	112	1800	
CCCCN(CCCC)C(=O)N1C[C@@H](c2ccc3c(c2)OCO3)[C@H](C(=O)O)[C@H]1c1ccc(OC)cc1	396	1470	
COc1ccc([C@@H]2[C@@H](C(=O)O)[C@H](c3ccc4c(c3)OCO4)CN2CCOc2ccccc2)cc1	885	3400	
COc1ccc([C@@H]2[C@@H](C(=O)O)[C@H](c3ccc4c(c3)OCO4)CN2C(=O)c2ccco2)cc1	5220	40300	
CCCCNC(=O)CN1C[C@@H](c2ccc3c(c2)OCO3)[C@H](C(=O)O)[C@H]1c1ccc(OC)cc1	43	1260	10
CCCCNC(=O)N1C[C@@H](c2ccc3c(c2)OCO3)[C@H](C(=O)O)[C@H]1c1ccc(OC)cc1	684	11100	
CCCN(CCC)C(=O)CCN1C[C@@H](c2ccc3c(c2)OCO3)[C@H](C(=O)O)[C@H]1c1ccc(OC)cc1	121	4200	
COc1ccc(NC(=O)N2C[C@@H](c3ccc4c(c3)OCO4)[C@H](C(=O)O)[C@H]2c2ccc(OC)cc2)cc1	781	3790	
COc1ccc([C@@H]2[C@@H](C(=O)O)[C@H](c3ccc4c(c3)OCO4)CN2CC(=O)N(C)c2ccccc2)cc1	50.2	1180	
COc1ccc([C@@H]2[C@@H](C(=O)O)[C@H](c3ccc4c(c3)OCO4)CN2CC(N)=O)cc1		3270	
CCCCS(=O)(=O)N1C[C@@H](c2ccc3c(c2)OCO3)[C@H](C(=O)O)[C@H]1c1ccc(OC)cc1	1240	6180	
CCCCN(C(=O)CN1C[C@@H](c2ccc3c(c2)OCO3)[C@H](C(=O)O)[C@H]1c1ccc(OC)cc1)c1ccccc1	0.81	306	
COCCN(CCOC)C(=O)CN1C[C@@H](c2ccc3c(c2)OCO3)[C@H](C(=O)O)[C@H]1c1ccc(OC)cc1	4.45	1070	4.91
CCCCCCN(C)C(=O)CN1C[C@@H](c2ccc3c(c2)OCO3)[C@H](C(=O)O)[C@H]1c1ccc(OC)cc1	7.61	404	1
COc1ccc([C@@H]2[C@@H](C(=O)O)[C@H](c3ccc4c(c3)OCO4)CN2CC(=O)N2CCCCC2)cc1	350	3040	
CCCCN(CCCC)CC(=O)N1C[C@@H](c2ccc3c(c2)OCO3)[C@H](C(=O)O)[C@H]1c1ccc(OC)cc1	6810	29400	

Compound	IC50 (Endothelin-1 receptor) [nM]	IC50 [1] [nM]	IC50 (Endothelin receptor) [nM]
COc1ccc([C@@H]2[C@@H](C(=O)O)[C@H](c3ccc4c(c3)OCO4)CN2CC(=O)N(C)CC(C)C)cc1	1.88	1050	0.28
CCCCN(CCCC)CCN1C[C@@H](c2ccc3c(c2)OCO3)[C@H](C(=O)O)[C@H]1c1ccc(OC)cc1	794	1590	
COc1ccc([C@@H]2[C@@H](C(=O)O)[C@H](c3ccc4c(c3)OCO4)CN2C(=O)COc2ccc(F)cc2)cc1		12700	
COc1ccc([C@@H]2[C@@H](C(=O)O)[C@H](c3ccc4c(c3)OCO4)CN2CC(=O)N(C)C2CCCCC2)cc1	23.8	806	2.06
COCCOCCN1C[C@@H](c2ccc3c(c2)OCO3)[C@H](C(=O)O)[C@H]1c1ccc(OC)cc1	682	3390	
COc1ccc([C@@H]2[C@@H](C(=O)O)[C@H](c3ccc4c(c3)OCO4)CN2Cc2ccc(F)cc2)cc1	4320	7930	
C#CCN(C)C(=O)CN1C[C@@H](c2ccc3c(c2)OCO3)[C@H](C(=O)O)[C@H]1c1ccc(OC)cc1	106	4000	
CC[S+]([O-])CCN1C[C@@H](c2ccc3c(c2)OCO3)[C@H](C(=O)O)[C@H]1c1ccc(OC)cc1 (some centres undefined)	44	834	
COc1ccc([C@@H]2[C@@H](C(=O)O)[C@H](c3ccc4c(c3)OCO4)CN2CC(=O)N(CC(C)C)CC(C)C)cc1	16.2	1820	0.6
CCCS(=O)(=O)CCN1C[C@@H](c2ccc3c(c2)OCO3)[C@H](C(=O)O)[C@H]1c1ccc(OC)cc1	37	750	
CCN(CC)C(=O)CN1C[C@@H](c2ccc3c(c2)OCO3)[C@H](C(=O)O)[C@H]1c1ccc(OC)cc1	32.9	5250	2.26
COc1ccc([C@@H]2[C@@H](C(=O)O)[C@H](c3ccc4c(c3)OCO4)CN2CCOCC(C)C)cc1	437	8380	
CCCOCCN1C[C@@H](c2ccc3c(c2)OCO3)[C@H](C(=O)O)[C@H]1c1ccc(OC)cc1	108	4970	
COc1ccc([C@@H]2[C@@H](C(=O)O)[C@H](c3ccc4c(c3)OCO4)CN2CC(=O)N(CCC(C)C)CCC(C)C)cc1	0.43	41	
CCOCCN1C[C@@H](c2ccc3c(c2)OCO3)[C@H](C(=O)O)[C@H]1c1ccc(OC)cc1	520	9010	
COc1ccc([C@@H]2[C@@H](C(=O)O)[C@H](c3ccc4c(c3)OCO4)CN2C(=O)Nc2ccccc2)cc1	2430	3510	
CCCCN(CCCC)C(=O)C(C)N1CC(c2ccc3c(c2)OCO3)C(C(=O)O)C1c1ccc(OC)cc1 (centres undefined)	0.46	315	1.34
COc1ccc([C@@H]2[C@@H](C(=O)O)[C@H](c3ccc4c(c3)OCO4)CN2CCc2ccccn2)cc1	900	2360	
CCCC#CCN1C[C@@H](c2ccc3c(c2)OCO3)[C@H](C(=O)O)[C@H]1c1ccc(OC)cc1	765	3590	
CCCC(CCC)C(=O)CN1C[C@@H](c2ccc3c(c2)OCO3)[C@H](C(=O)O)[C@H]1c1ccc(OC)cc1	85	283	
CCCCN(CC)C(=O)CN1C[C@@H](c2ccc3c(c2)OCO3)[C@H](C(=O)O)[C@H]1c1ccc(OC)cc1	0.85	531	0.33
C=CCNC(=O)CN1C[C@@H](c2ccc3c(c2)OCO3)[C@H](C(=O)O)[C@H]1c1ccc(OC)cc1	34.2	889	16.5
COc1ccc([C@@H]2[C@@H](C(=O)O)[C@H](c3ccc4c(c3)OCO4)CN2CC(=O)NC2CCCC2)cc1	16.2	307	23.8
COc1ccc([C@@H]2[C@@H](C(=O)O)[C@H](c3ccc4c(c3)OCO4)CN2CC(=O)N(C)Cc2ccccc2)cc1	769	1680	
